{
  "source": "patent US20190046662A1",
  "about": "“Compositions and Methods for Treating Neuropathic Pain” (Rutgers, The State University of New Jersey, priority 2016, published 2019)",
  "type_in_all_cases": "in vivo, rat",
  "key": {"hSyn-hM4D [1]": {"target": "T1, hSyn-hM4D (Homo sapiens, UniProt P08173, A203G/Y113C)", "T1 construct": "expressed in transfected cells; host or cells: rat trigeminal ganglion neurons in vivo, viral vector with synapsin promoter", "T1 sequence (P08173 1-479 Y113C/A203G)": "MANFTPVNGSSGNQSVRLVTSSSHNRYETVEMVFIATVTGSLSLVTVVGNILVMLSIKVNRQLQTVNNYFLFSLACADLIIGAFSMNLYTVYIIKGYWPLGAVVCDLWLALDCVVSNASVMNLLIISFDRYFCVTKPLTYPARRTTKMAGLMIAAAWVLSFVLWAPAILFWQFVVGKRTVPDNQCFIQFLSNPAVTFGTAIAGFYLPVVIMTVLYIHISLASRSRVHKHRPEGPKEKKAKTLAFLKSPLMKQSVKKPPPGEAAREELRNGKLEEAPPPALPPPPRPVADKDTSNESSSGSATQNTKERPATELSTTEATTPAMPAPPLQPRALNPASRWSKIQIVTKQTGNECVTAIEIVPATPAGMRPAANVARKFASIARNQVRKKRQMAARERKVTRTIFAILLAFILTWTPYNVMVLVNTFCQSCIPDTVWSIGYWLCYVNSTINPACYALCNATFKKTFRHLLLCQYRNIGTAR", "test": "von Frey detection threshold, synapsin-DREADD (hSyn-hM4D) in right trigeminal ganglion, non-CCI animals", "conditions": "n=7 per group, CNO i.p. vs vehicle", "excerpt": "The effects of synapsin-DREADD activation with CNO on von Frey detection threshold were studied (FIG. 3). The von Frey assay uses von Frey fibers, which are small pieces of nylon rod of varying diameters, to test a rodent's sensitivity to a mechanical stimulus. The von Frey assay is generally considered a mechanical nociceptive threshold test. All animals (males, n=7 per group; females, n=7 per group) had synapsin-DREADD (hSyn-hM4D; synapsin promoter driven DREADD) injected into the right trigeminal ganglion. Average von Frey detection thresholds (±SEM) were plotted following intraperitoneal (i.p.) administration of CNO or vehicle."}, "hSyn-hM4D [2]": {"target": "T1, hSyn-hM4D", "test": "Pin-prick response score, synapsin-DREADD (hSyn-hM4D) in right trigeminal ganglion, non-CCI animals", "conditions": "n=7 per group, CNO i.p. vs vehicle", "excerpt": "The effects of synapsin-DREADD activation with CNO on pin-prick response score were also studied (FIG. 4). The pin-prick assay is generally considered a nociceptive threshold test. All animals (males, n=7 per group; females, n=7 per group) had synapsin-DREADD (hSyn-hM4D) injected into the right trigeminal ganglion. Average pin-prick response scores (±SEM) are plotted following intraperitoneal (i.p.) administration of CNO or vehicle."}, "hTac1-hM4D [3]": {"target": "T2, hTac1-hM4D (Homo sapiens, UniProt P08173, A203G/Y113C)", "T2 construct": "expressed in transfected cells; host or cells: rat trigeminal ganglion neurons in vivo, viral vector with Tac1 promoter", "T2 sequence (P08173 1-479 Y113C/A203G)": "T1 sequence (P08173 1-479 Y113C/A203G)", "test": "Pin-prick response score, Tac1-DREADD (hTac1-hM4D) in trigeminal ganglion, non-CCI animals", "conditions": "females, n=7 per group, CNO i.p. vs vehicle", "excerpt": "The effects of Tac1-DREADD activation with CNO on pin-prick response score were also studied (FIG. 8). All animals (female, n=7 per group) had Tachykinin 1-DREADD (hTac1-hM4D) injected into the trigeminal ganglion unilaterally. Average pin-prick response scores (±SEM) were plotted following intraperitoneal (i.p.) administration of CNO or vehicle."}, "hTac1-hM4D [4]": {"target": "T2, hTac1-hM4D", "test": "Pain-like behavior after IoN-CCI, Tac1-DREADD (hTac1-hM4D)", "conditions": "IoN-CCI males", "excerpt": "For the infraorbital nerve chronic constriction injury (ION-CCI), ˜0.5 cm of the infraorbital nerve will be freed and two chromic gut ligatures will be loosely tied around it (2 mm apart) prior to closure of the incision (all performed under ketamine/xylazine anesthesia). As a control, other rats will undergo sham surgery where the infraorbital nerve is exposed but left untouched. This model results in persistent pain beginning at about 2 weeks postoperatively and lasting at least 3 weeks (Benoliel et al. (2001) Neurosci. Lett., 297:151-4; Benoliel et al. (2002) Pain 97:203-12), allowing for the assessment of the effect of vehicle vs CNO/DREADD-mediated inhibition of TG neurons on this behavior at multiple time points. Fos expression and cAMP levels may also be measured in the TG to correlate these molecular endpoints to behavioral effects of DREADD activation. The rats will also undergo repeated stimulation with a 2-g von Frey hair applied to the hairy skin of the vibrissae on the operated side to induce Fos (Vos et al. (1995) J. Comp. Neurol., 357:362-75). Activation of hM4Di receptors will reduce Fos in the TG following von Frey stimulation.\nThe effects of Tac1-DREADD activation with CNO on pain-like behavior following IoN-CCI were studied (FIG. 10). The mean von Frey detection thresholds (±SEM) (left) and the mean response scores (±SEM) (right) to the pin-prick stimulation applied to the vibrissal pads were plotted. All animals (males, n=7 per group) were exposed to the infraorbital nerve chronic constriction injury (IoN-CCI) unilaterally. Following IoN-CCI, all animals had tachykinin 1-DREADD (hTac1-hM4D) injected into the ipsilateral trigeminal ganglion. At post-operative day 26 (D26) CNO or vehicle was delivered intraperitoneally 30 minutes prior to behavioral testing."}, "[5]": {"conditions": "Tac1-DREADD study (sentence prints hSyn-hM4D), CNO i.p. at D26"}},
  "data": [
    {"compound": "C[N+]1([O-])CCN(C2=Nc3cc(Cl)ccc3Nc3ccccc32)CC1", "note": "[CNO, clozapine N-oxide]", "values": [
      {"measurement": "von Frey detection threshold, ipsilateral vibrissal pad", "setting": "hSyn-hM4D [1]; females, D28, 30 min after CNO, F=1.2, P=0.3", "result": "no significant effect"},
      {"measurement": "von Frey detection threshold, contralateral vibrissal pad", "setting": "hSyn-hM4D [1]; females, F=2.8, P=0.1", "result": "no significant effect"},
      {"measurement": "von Frey detection threshold, contralateral vibrissal pad", "setting": "hSyn-hM4D [1]; males, F=1.2, P=0.3", "result": "no significant effect"},
      {"measurement": "von Frey detection threshold, ipsilateral vibrissal pad", "setting": "hSyn-hM4D [1]; males, F=3.3, P=0.1", "result": "no significant effect"},
      {"measurement": "pin-prick response score, contralateral side", "setting": "hSyn-hM4D [2]; females, F=0.1, P=0.7", "result": "no significant effect"},
      {"measurement": "pin-prick response score, ipsilateral side", "setting": "hSyn-hM4D [2]; females, F=0.1, P=0.8", "result": "no significant effect"},
      {"measurement": "pin-prick response score, contralateral (left) vibrissal pad", "setting": "hSyn-hM4D [2]; males, F=1.3, P=0.3", "result": "No significant effect"},
      {"measurement": "pin-prick response score, ipsilateral (right) vibrissal pad", "setting": "hSyn-hM4D [2]; males, F=9.8, P=0.01", "result": "significantly reduced"},
      {"measurement": "pin-prick response score, contralateral vibrissal pad", "setting": "hTac1-hM4D [3]; F=0.01, P=0.9", "result": "no significant effect"},
      {"measurement": "pin-prick response score, ipsilateral vibrissal pad", "setting": "hTac1-hM4D [3]; F=0.1, P=0.8", "result": "no significant effect"},
      {"measurement": "von Frey detection threshold, ipsilateral side, compared to vehicle treated animals", "setting": "hTac1-hM4D [4]; n=7 per group, hTac1-hM4D, CNO i.p. at D26, 30 min prior to testing, F=6.3, P=0.03", "result": "significantly increased"},
      {"measurement": "pin-prick response score, ipsilateral vibrissal pad, compared to vehicle treated animals", "setting": "hTac1-hM4D [4]; n=7 per group, hTac1-hM4D, CNO i.p. at D26, F=8.6, P=0.01", "result": "significantly decreased"},
      {"measurement": "pin-prick response score, contralateral side", "setting": "hTac1-hM4D [4]; [5]", "result": "No significant effects"},
      {"measurement": "von Frey detection threshold, contralateral side", "setting": "hTac1-hM4D [4]; [5]", "result": "No significant effects"},
      {"measurement": "pin-prick response score, ipsilateral side, compared to post-operative days 21 and 27", "setting": "hTac1-hM4D [4]; hTac1-hM4D, CNO i.p. at D26, D21 F=18.9, P=0.0003, D27 F=16.9, P=0.0006", "result": "significantly decreased"},
      {"measurement": "von Frey detection threshold, ipsilateral side, compared to post-operative days 21 and 27", "setting": "hTac1-hM4D [4]; hTac1-hM4D, CNO i.p. at D26, D21 F=31.4, P<0.0001, D27 F=9.8, P=0.006", "result": "significantly increased"}
    ]}
  ]
}
